The supplement of paper PMC10307832

Legend:
Assay in all cases: relative viability (nuclei count vs DMSO), 5 days (fraction); higher = more cells survive
Everolimus + Pemetrexed = compound: CO[C@H]1C[C@@H]2CC[C@@H](C)[C@@](O)(O2)C(=O)C(=O)N2CCCC[C@H]2C(=O)O[C@H]([C@H](C)C[C@@H]2CC[C@@H](OCCO)[C@H](OC)C2)CC(=O)[C@H](C)/C=C(\C)[C@@H](O)[C@@H](OC)C(=O)[C@H](C)C[C@H](C)/C=C/C=C/C=C/1C [Everolimus] + Nc1nc2[nH]cc(CCc3ccc(C(=O)N[C@@H](CCC(=O)O)C(=O)O)cc3)c2c(=O)[nH]1 [Pemetrexed] (partner 0.2 µM)
Method in brief: (§1)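 Lung cancer cell lines were pin-tool dosed in 1536-well plates on the day after seeding, with either a lone drug or a fixed anchor-drug dose plus five library-drug doses (not always all listed) in √10 steps. Nuclei were counted on 4× images after 5 days. Relative viability is the ratio of treated-well to vehicle-well nuclei counts, with each value a median of duplicate plates.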

Everolimus + Bortezomib = compound: CO[C@H]1C[C@@H]2CC[C@@H](C)[C@@](O)(O2)C(=O)C(=O)N2CCCC[C@H]2C(=O)O[C@H]([C@H](C)C[C@@H]2CC[C@@H](OCCO)[C@H](OC)C2)CC(=O)[C@H](C)/C=C(\C)[C@@H](O)[C@@H](OC)C(=O)[C@H](C)C[C@H](C)/C=C/C=C/C=C/1C [Everolimus] + CC(C)C[C@H](NC(=O)[C@H](Cc1ccccc1)NC(=O)c1cnccn1)B(O)O [Bortezomib] (partner 0.002 µM)
Method in brief: as §1

Everolimus + Olaparib = compound: CO[C@H]1C[C@@H]2CC[C@@H](C)[C@@](O)(O2)C(=O)C(=O)N2CCCC[C@H]2C(=O)O[C@H]([C@H](C)C[C@@H]2CC[C@@H](OCCO)[C@H](OC)C2)CC(=O)[C@H](C)/C=C(\C)[C@@H](O)[C@@H](OC)C(=O)[C@H](C)C[C@H](C)/C=C/C=C/C=C/1C [Everolimus] + O=C(c1cc(Cc2n[nH]c(=O)c3ccccc23)ccc1F)N1CCN(C(=O)C2CC2)CC1 [Olaparib] (partner 8 µM)
Method in brief: as §1

Everolimus + Alpelisib = compound: CO[C@H]1C[C@@H]2CC[C@@H](C)[C@@](O)(O2)C(=O)C(=O)N2CCCC[C@H]2C(=O)O[C@H]([C@H](C)C[C@@H]2CC[C@@H](OCCO)[C@H](OC)C2)CC(=O)[C@H](C)/C=C(\C)[C@@H](O)[C@@H](OC)C(=O)[C@H](C)C[C@H](C)/C=C/C=C/C=C/1C [Everolimus] + Cc1nc(NC(=O)N2CCC[C@H]2C(N)=O)sc1-c1ccnc(C(C)(C)C(F)(F)F)c1 [Alpelisib] (partner 2 µM)
Method in brief: as §1

Cell Line	relative viability (Everolimus + Pemetrexed; first compound 0.01 µM)	relative viability (Everolimus + Pemetrexed; first compound 0.03162 µM)	relative viability (Everolimus + Pemetrexed; first compound 0.1 µM)	relative viability (Everolimus + Pemetrexed; first compound 0.3162 µM)	relative viability (Everolimus + Pemetrexed; first compound 1 µM)	relative viability (Everolimus + Bortezomib; first compound 0.01 µM)	relative viability (Everolimus + Bortezomib; first compound 0.03162 µM)	relative viability (Everolimus + Bortezomib; first compound 0.1 µM)	relative viability (Everolimus + Bortezomib; first compound 0.3162 µM)	relative viability (Everolimus + Bortezomib; first compound 1 µM)	relative viability (Everolimus + Olaparib; first compound 0.01 µM)	relative viability (Everolimus + Olaparib; first compound 0.03162 µM)	relative viability (Everolimus + Olaparib; first compound 0.1 µM)	relative viability (Everolimus + Olaparib; first compound 0.3162 µM)	relative viability (Everolimus + Olaparib; first compound 1 µM)	relative viability (Everolimus + Alpelisib; first compound 0.01 µM)	relative viability (Everolimus + Alpelisib; first compound 0.03162 µM)	relative viability (Everolimus + Alpelisib; first compound 0.1 µM)	relative viability (Everolimus + Alpelisib; first compound 0.3162 µM)	relative viability (Everolimus + Alpelisib; first compound 1 µM)
HCC-366	0.339	0.307	0.284	0.216	0.173	1.02	1.07	0.983	0.878	0.772	0.337	0.271	0.302	0.27	0.284	0.334	0.231	0.251	0.25	0.267
HCC-827	0.22	0.251	0.194	0.275	0.243	0.995	1.19	1.07	1.16	1.09	0.73	0.672	0.681	0.501	0.645	0.925	0.736	0.656	0.682	0.637
HOP-62	0.326	0.401	0.337	0.375	0.338	0.493	0.662	0.399	0.489	0.574	0.354	0.434	0.5	0.505	0.339	0.683	0.551	0.517	0.518	0.429
LC-2-ad	0.275	0.301	0.286	0.291	0.253	1.05	1.1	0.997	0.943	1	0.861	0.972	0.817	0.84	0.864	0.752	0.885	0.754	0.737	0.818
LCLC-97TM1	0.165	0.195	0.196	0.18	0.211	0.607	0.489	0.525	0.246	0.495	0.356	0.317	0.291	0.269	0.434	0.204	0.178	0.164	0.167	0.139
LCLC-103H	0.43	0.453	0.472	0.45	0.438	1.06	1.01	1.02	1.07	0.749	0.709	0.762	0.669	0.685	0.761	0.887	0.855	0.846	0.776	0.639
LOU-NH91	0.477	0.467	0.394	0.418	0.485	0.504	0.521	0.488	0.521	0.518	0.744	0.829	0.789	0.788	0.777	0.64	0.551	0.543	0.564	0.52
LU99A	0.206	0.24	0.248	0.189	0.254	0.647	0.599	0.543	0.568	0.614	0.246	0.21	0.226	0.216	0.236	0.284	0.278	0.294	0.259	0.315
LXF-289	1.09	1.07	0.823	1.12	1.02	0.976	1.01	0.987	1.03	1.01	1.03	1.04	0.885	1.03	1	0.993	0.967	0.901	0.973	0.868
NCI-H23	0.55	0.398	0.607	0.535	0.472	0.497	0.471	0.334	0.565	0.555	0.261	0.219	0.267	0.221	0.22	0.355	0.326	0.285	0.281	0.309
NCI-H322M	0.597	0.598	0.554	0.597	0.618	0.974	0.995	1.01	0.939	0.948	0.723	0.686	0.742	0.704	0.73	0.686	0.577	0.578	0.585	0.58
NCI-H441	0.275	0.276	0.269	0.262	0.286	0.364	0.497	0.504	0.457	0.506	0.517	0.598	0.489	0.657	0.484	0.515	0.575	0.582	0.564	0.461
NCI-H460	0.058	0.0669	0.0635	0.0608	0.072	0.827	0.982	0.672	0.881	1.08	0.44	0.407	0.4	0.403	0.422	0.22	0.298	0.199	0.271	0.168
NCI-H520	0.349	0.318	0.324	0.255	0.325	0.327	0.282	0.243	0.195	0.276	0.29	0.209	0.296	0.18	0.312	0.434	0.474	0.335	0.296	0.257
NCI-H596	0.454	0.46	0.471	0.433	0.443	0.813	0.716	0.658	0.612	0.589	0.642	0.475	0.618	0.515	0.506	0.386	0.297	0.347	0.382	0.37
NCI-H647	0.175	0.184	0.156	0.11	0.175	0.635	0.59	0.601	0.635	0.693	0.268	0.303	0.199	0.176	0.368	0.626	0.534	0.449	0.429	0.757
NCI-H650	0.645	0.606	0.626	0.516	0.591	0.649	–	0.556	0.571	0.458	0.397	0.37	0.373	0.284	0.307	1.05	–	0.752	0.592	0.587
NCI-H661	0.805	0.763	0.863	0.793	0.664	0.592	0.572	0.518	0.421	0.386	0.672	0.64	0.576	0.593	0.491	0.438	0.345	0.35	0.383	0.309
NCI-H838	0.229	0.213	0.241	0.228	0.222	0.42	0.48	0.377	0.41	0.597	0.493	0.484	0.494	0.479	0.403	0.392	0.385	0.382	0.343	0.347
NCI-H1355	0.747	0.553	0.521	0.502	0.486	0.611	0.567	0.593	0.592	0.564	0.486	0.514	0.426	0.536	0.48	0.415	0.277	0.309	0.327	0.321
NCI-H1437	0.296	0.307	0.294	0.29	0.251	0.443	0.505	0.342	0.302	0.413	0.632	0.622	0.588	0.596	0.598	0.566	0.438	0.549	0.507	0.294
NCI-H1651	0.398	0.386	0.423	0.41	0.433	0.766	0.66	0.8	0.731	0.564	0.185	0.201	0.254	0.229	0.211	0.639	0.454	0.611	0.537	0.451
NCI-H1666	0.884	0.859	0.93	0.885	0.825	0.644	0.527	0.494	0.56	0.533	0.725	0.779	0.781	0.731	0.823	0.776	0.509	0.584	0.496	0.511
NCI-H1734	0.407	0.435	0.461	0.385	0.406	0.529	0.624	0.497	0.515	0.546	0.448	0.409	0.456	0.406	0.407	0.449	0.398	0.466	0.399	0.463
NCI-H1755	0.468	0.484	0.512	0.438	0.448	0.785	0.492	0.736	0.723	0.714	0.764	0.592	0.697	0.556	0.588	0.646	0.659	0.653	0.643	0.611
NCI-H1792	0.335	0.245	0.318	0.315	0.183	0.819	0.705	0.657	0.572	0.538	0.21	0.155	0.167	0.113	0.119	0.618	0.5	0.312	0.222	0.212
NCI-H1915	0.484	0.481	0.469	0.499	0.432	0.917	0.864	0.977	0.79	0.882	0.282	0.31	0.285	0.26	0.288	0.806	0.833	0.784	0.732	0.723
NCI-H1975	0.37	0.343	0.353	0.345	0.339	0.335	0.357	0.317	0.372	0.313	0.752	0.654	0.697	0.691	0.655	0.494	0.454	0.456	0.376	0.339
NCI-H1993	0.516	0.457	0.482	0.508	0.547	0.571	0.521	0.598	0.567	0.64	0.584	0.364	0.499	0.529	0.558	0.674	0.654	0.602	0.627	0.672
